Among the data in patent US12577259B2, “PCSK9 antagonist compounds” (MERCK SHARP & DOHME LLC, priority 2019, dated 2026) are Ki values, retold here.

Type in all cases: binding
In assay [1] the target is T1, PCSK9 (Homo sapiens, UniProt Q8NBP7).
T1 construct: biotin (biotinylated); purchased
The assay is described as follows: PCSK9 Alexa FRET Standard TR-FRET assay. The following applies: biotinylated PCSK9 0.5 nM, 20 nM AF cyclic peptide Reagent A; Ki calculated from IC50 and KD of AF peptide; read-out: Alexa FRET Stdt TR-FRET. As for the experimental part:
(§1) The following is a description of the assays used to determine activity of compounds of the invention, and any comparator compounds reported, toward PCSK9 antagonism. Biotinylated PCSK9 was obtained commercially.
A separate solution containing 40 nM of the AlexaFluor tagged cyclic peptide is made in the same buffer system. An Echo is used to transfer 0.750 ul of compound to an assay plate followed by the addition of 15 ul of PCSK9+Stept-Eu and 15 ul of AF peptide. […] The reaction is incubated at room temperature for at least two hours prior to fluorescence measurements using an Envision Multilabel Reader. IC50 values are determined by fitting data to a sigmoidal dose-response curve using nonlinear regression. Ki is then calculated from the Ic50 and the KD of AF cyclic peptide. Counts (B-counts) of the europium-labeled PCSK9 are followed to observe if compounds are adversely PCSK9. A fall off of the B-counts likely indicates a false positive of inhibition. Data from this procedure is reported as “A=‘numerical value’ (nanomolar)”

Assay [2] has as its target T1, PCSK9. The experiment in a line: PCSK9 Alexa FRET Plus TR-FRET assay. The note with it: biotinylated PCSK9 0.5 nM, 960 nM AF cyclic peptide Reagent B; Ki calculated from IC50 and KD of AF peptide. As for the experimental part: as §1
An Echo is used to transfer 0.075 ul of compound plus 0.675 ul of DMSO to each well of an assay plate followed by the addition of 15 ul of PCSK9+Stept-Eu and 15 ul of AF peptide. […] The reaction is incubated at room temperature for at least two hours prior to fluorescence measurements using an Envision Multilabel Reader. IC50 values are determined by fitting data to a sigmoidal dose-response curve using nonlinear regression. Ki is then calculated from the Ic50 and the KD of AF cyclic peptide. Counts (B-counts) of the europium-labeled PCSK9 are followed to observe if compounds are adversely affecting PCSK9. […] Data from this procedure is reported as “P=‘numerical value’ (nanomolar)”

Assay [3] has as its target T1, PCSK9. The experiment in a line: PCSK9 Alexa FRET Ultra TR-FRET assay. The following applies: Ki Ultra; biotinylated PCSK9 0.5 nM, 960 nM AF cyclic peptide; Ki calculated from IC50 and KD of AF peptide; read-out: Alexa FRET Ultra TR-FRET. As for the experimental part:
The following is a description of the assays used to determine activity of compounds of the invention, and any comparator compounds reported, toward PCSK9 antagonism. Biotinylated PCSK9 was obtained commercially. […] An Echo is used to transfer 0.015 ul of compound plus 0.735 ul of DMSO to each well of an assay plate followed by the addition of 15 ul of PCSK9+Stept-Eu and 15 ul of AF peptide. […] The reaction is incubated at room temperature for at least two hours prior to fluorescence measurements using an Envision Multilabel Reader. IC50 values are determined by fitting data to a sigmoidal dose-response curve using nonlinear regression. Ki is then calculated from the Ic50 and the KD of AF cyclic peptide. Counts (B-counts) of the europium-labeled PCSK9 are followed to observe if compounds are adversely affecting PCSK9. […] Data from this procedure is reported as “Ki Ultra=‘numerical value’ (data reported is nanomolar)”

T1 sequence (Q8NBP7 153-692): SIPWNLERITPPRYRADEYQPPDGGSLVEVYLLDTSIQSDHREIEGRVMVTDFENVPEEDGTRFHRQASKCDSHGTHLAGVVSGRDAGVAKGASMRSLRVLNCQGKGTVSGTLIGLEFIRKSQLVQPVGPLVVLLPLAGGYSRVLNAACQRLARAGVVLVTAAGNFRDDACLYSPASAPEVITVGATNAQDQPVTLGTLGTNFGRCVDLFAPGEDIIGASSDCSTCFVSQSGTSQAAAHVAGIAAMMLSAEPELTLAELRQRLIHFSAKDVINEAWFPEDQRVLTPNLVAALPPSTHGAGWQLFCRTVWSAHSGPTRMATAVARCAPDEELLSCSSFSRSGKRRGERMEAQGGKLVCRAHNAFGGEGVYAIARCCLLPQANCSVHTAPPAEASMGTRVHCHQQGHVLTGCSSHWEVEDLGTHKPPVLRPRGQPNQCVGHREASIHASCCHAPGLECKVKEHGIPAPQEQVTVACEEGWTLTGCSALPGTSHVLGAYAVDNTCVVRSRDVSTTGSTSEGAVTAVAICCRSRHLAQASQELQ

Take `COc1ccc(C[C@@H]2NC(=O)[C@H]([C@@H](C)O)NC(=O)[C@@H]3[C@@H]4CCN3C(=O)[C@@H]3Cc5cn(c6ccc(F)cc56)CCCCCCN(Cc5ccc(cc5)CCNC(=O)[C@]5(C)CCCN5C2=O)C(=O)CCOCCC(=O)N[C@H](CNC(=O)CCOCCOCC[N+](C)(C)CCNC(=O)COCCOCCNC(=O)COCCOCCNC(=O)CC[C@H](NC(=O)CC[C@H](NC(=O)CCCCCCCCCCCCCCC(=O)O)C(=O)O)C(=O)O)C(=O)N[C@@H](Cc2cccc(c2)CNC(=O)CO4)C(=O)N3)cc1` [Example 12]: the Ki on PCSK9 [1] was less than 1260 pM; on PCSK9 [2], less than 6 pM; on PCSK9 [3], 2 pM.
